How the values were obtained:
algae [1] = assay: Mixed algae/diatom culture with urea cycle pathway inhibitor, cellometer cell count: algae; format: cell-based; conditions: 1 mM inhibitor
Method: (§1) A control was established containing equal quantities of algae and diatoms. Similarly a test was also established containing the same equal quantities of algae and diatoms along with 1 mM of urea cycle pathway inhibitor namely, Saccharopine.
(§2) At Day 1 using a cellometer technique the cell counts of algae and diatoms in both the control and the test was carried out.
(§3) Both the control and the test were then incubated for 4 days in similar optimum conditions with periodic checking for cell counts in both the control and the test vessels.
(§4) The diatom and the algal cell count was then determined using the cellometer technique at the end of 4th day.

diatoms and algae = assay: Similar trials with other urea cycle pathway inhibitors in mixed environment of diatoms and algae; conditions: no details given
diatoms [2] = assay: Mixed algae/diatom culture with urea cycle pathway inhibitor, cellometer cell count: diatoms; format: cell-based; conditions: 1 mM inhibitor
Method: as §1, §2, §3, §4

diatoms [3] = assay: Pond (natural habitat) trial with urea cycle pathway inhibitor, cellometer cell count: diatoms; parameters: species or system diatom; conditions: 25 mM added to pond
Method: (§5) Another experiment was carried out in a natural habitat i.e. a pond consisting of a mixed environment of algae and diatoms. At Day 1 using a cellometer technique the cell counts of algae and diatoms was carried out.
(§6) A urea cycle pathway inhibitor, namely Tris 25 mM was added to the pond.
(§7) Periodic cell count readings were carried out for a span of two months. The diatom and the algal cell count were then determined using the cellometer technique at the end of the 2 month span.

algae [4] = assay: Pond (natural habitat) trial with urea cycle pathway inhibitor, cellometer cell count: algae; conditions: 25 mM added to pond, end of 2 month span; day 1 count 1000 cells/meter
Method: as §5, §6, §7

## N[C@@H](CCCCN[C@@H](CCC(=O)O)C(=O)O)C(=O)O [Saccharopine]
Algae [1]; after 4 days incubation, control 119, day 1 count 100
  Day 4 (Cell Count) Inhibitor Algae: 450
Algae [1]; initial count at day 1
  Day 1 (Cell count) Inhibitor Algae: 100
Diatoms and algae
  Outcome of similar trials (diatom inhibition and algal growth): equally successful results
Diatoms [2]; after 4 days incubation, control 842, day 1 count 200
  Day 4 (Cell Count) Inhibitor Diatom: 62
Diatoms [2]; day 4
  Diatom cell count reduction from day 1: 69%
Diatoms [2]; initial count at day 1
  Day 1 (Cell count) Inhibitor Diatom: 200

## NC(CO)(CO)CO [Tris]
Diatoms [3]; 2 months
  Diatom cell count of the pond reduced, as compared to the cell count of diatoms on Day 1: 71%
Diatoms [3]; end of 2 month span, day 1 count 2000 cells/meter
  Cell count at Day 60 Diatom: 580 cells/meter
Diatoms and algae
  Outcome of similar trials (diatom inhibition and algal growth): equally successful results
Algae [4]
  Cell count at Day 60 Algae: 5300 cells/meter

## N [ammonia]
Diatoms and algae
  Outcome of similar trials (diatom inhibition and algal growth): equally successful results

## O=S(=O)(O)CCN1CCN(CCO)CC1 [hepes]
Diatoms and algae
  Outcome of similar trials (diatom inhibition and algal growth): equally successful results

## NCCCC[C@H](N)C(=O)O [lysine]
Diatoms and algae
  Outcome of similar trials (diatom inhibition and algal growth): equally successful results

## CCCCCCCCCCCCCCCC(=O)SCCNC(=O)CCNC(=O)[C@H](O)C(C)(C)COP(=O)(O)OP(=O)(O)OC[C@H]1O[C@@H](n2cnc3c(N)ncnc32)[C@H](O)[C@@H]1OP(=O)(O)O [palmitoyl CoA]
Diatoms and algae
  Outcome of similar trials (diatom inhibition and algal growth): equally successful results

## O=C([O-])c1ccccc1.[Na+] [sodium benzoate]
Diatoms and algae
  Outcome of similar trials (diatom inhibition and algal growth): equally successful results

Reference: patent publication US20160272935A1, “Method of improving the yield of algae production” (RELIANCE INDUSTRIES LIMITED, priority 2013, published 2016)
